The results in this text go back to patent publication US20060014740A1 (priority 2003, published 2006).

Where a name gives a salt, the structure may show the parent alone. Read-outs that look alike come from different tables or passages of the source.

As usually defined, the IC50 is the concentration that inhibits the measured activity by half.

Assay [1] deals with LNCaP human prostate cancer cells. Description: SRB cytotoxicity assay, LNCaP. It counts as cell-based. As to conditions: Homo sapiens. On the procedure: (§1) For in vitro cytotoxicity screening, 1000 to 5000 cells were plated into each well of 96-well plates depending on growth rate, and exposed to different concentrations of a test compound for 96 h in three to five replicates. All the compounds were dissolved in dimethyl sulfoxide at 5 to 20 mM, and diluted to desired concentrations in complete culture medium. Cell numbers at the end of the drug treatment were measured by the SRB assay (Gududuru et al., “Synthesis and Biological Evaluation of Novel Cytotoxic Phospholipids for Prostate Cancer,” Bioorg. Med. Chem. Lett. 14:4919-4923 (2004); Rubinstein et at., “Comparison of in vitro Anticancer-Drug-Screening Data Generated with a Tetrazolium Assay Versus a Protein Assay Against a Diverse Panel of Human Tumor Cell Lines,” J. Naatl, Cancer Inst. 82:1113-1118 (1990), each of which is hereby incorporated by reference in its entirety). Briefly, the cells were fixed with 10% of trichloroacetic acid, stained with 0.4% SRB, and the absorbances at 540 nm was measured using a plate reader (DYNEX Technologies, Chantilly, Va.).
(§2) The antiproliferative activity of all the synthesized compounds was evaluated against five human prostate cancer cell lines and in RH7777 cells (negative control) using the sulforhodamine B (SRB) assay (see description in Example 5 above).
(§3) The chosen cell lines represent different basal levels of active AKT and LPL receptor expression (discussed later). Cells were exposed to a wide range of concentrations (0 to 100 μM) of the indicated compound for 96 h. Cell numbers at the end of treatment were measured using the sulforhodamine B (SRB) assay^5.
(§4) Cells were exposed to a wide range of concentrations (0 to 100 μM) of the particular compound for 96 h in 96 well plates. Cells were fixed with 10% trichloroacetic acid, washed five times with water. The plates were air dried overnight and fixed cells were stained with SRB solution. The cellular protein-bound SRB was measured at 540 nm using a plate reader. Cell numbers at the end of the treatment were measured.
(§5) Cells were exposed to a wide range of concentrations (0 to 100 μM) of the particular compound for 96 h in 96-well plates. Cells were fixed with 10% trichloroacetic acid, washed five times with water. The plates were air dried overnight and fixed cells were stained with SRB solution. The cellular protein-bound SRB was measured at 540 nm using a plate reader. Cell numbers at the end of the treatment were calculated as a percentage of untreated control.
(Sulforhodamine B stains cellular protein and so reports cell mass.)

In assay [2] the test system is AKT phosphorylation (Pi-AKT) in LNCaP cells. The assay can be described thus: AKT phosphorylation by Western blot in LNCaP cells. It counts as cell-based, human. How it is done: As another assessment of cytotoxicity, AKT inhibition was measured. […] The immunoblots were visualized by enhanced, chemiluminescence, and changes of relative levels of phospho-AKT compared to total AKT by analog treatment were quantified by densitometric analysis.
Prostate cell line LNCaP cells were treated with 30 μM of the compound of Formula: [drawing 54]
for the indicated period and time. The active form of AKT (Pi-AKT) and the β-Actin were quantified by Western blot analysis. […]
Prostate cell line LNCaP cells were treated with 10 μM of the compound of Formula: [drawing 55]
for the indicated period and time. The active form of AKT (Pi-AKT) and AKT were quantified by Western blot analysis. […]
Prostate cell line LNCaP cells were treated with 10 μM of the compound of Formula [drawing 56]
for the indicated period and time. The active form of AKT (Pi-AKT), AKT and β-Actin were quantified by Western blot analysis. […]

The test system of assay [3] is RH7777 rat hepatoma cells. Description: SRB cytotoxicity assay, RH7777 control cell line. It counts as cell-based. As to conditions: Rattus norvegicus, read-out: IC50 RH7777. How it is done:
as §1, §2, §3, §4, §5

The test system of assay [4] is DU-145 human prostate cancer cells. Description: SRB cytotoxicity assay, DU-145. It counts as cell-based. As to conditions: Homo sapiens. On the procedure:
as §1, §2, §3, §4, §5

Assay [5] deals with PC-3 human prostate cancer cells. The assay can be described thus: SRB cytotoxicity assay, PC-3. It counts as cell-based. As to conditions: Homo sapiens, 96 h, read-out: IC50 PC-3. On the procedure: as §1, §2, §3, §4, §5
Assay [6] deals with PPC-1 human prostate cancer cells. Description: SRB cytotoxicity assay, PPC-1. The format is cell-based. As to conditions: Homo sapiens, read-out: IC50 PPC-1. How it is done:
(§6) Dr. Mitchell Steiner at University of Tennessee Health Science Center, kindly provided PPG-1 and TSU-PrI cells.
as §1, §2, §3, §4, §5

The test system of assay [7] is TSU-Pr1 human prostate cancer cells. The assay can be described thus: SRB cytotoxicity assay, TSU-Pr1. It counts as cell-based. As to conditions: Homo sapiens, read-out: IC50 TSU-Pr1. How it is done:
as §6, §1, §2, §3, §4, §5

In assay [8] the test system is human breast cancer cell line (MCF-7). The assay can be described thus: SRB cytotoxicity assay, MCF-7. It counts as cell-based. As to conditions: Homo sapiens, read-out: IC50 MCF-7. On the procedure:
as §1
In vitro cytotoxicity assay was performed by the same sulforhodamine B (SRB) assay (described above). The compounds shown in Table 8 below where tested for activity against the breast cancer and ovarian cancer cell lines.
as §3, §4

The mark [9] stands for this setting: stated in the text of the LNCaP AKT experiments (Examples 12-14), test of the IC50 not named, read-out: IC50.
[10] abbreviates: RH7777, Table 4, control cell line, 96 h.
The mark [11] stands for this setting: DU-145, read-out: IC50 DU-145, Table 4, 96 h.
[12] abbreviates: LNCaP, Table 4, 96 h, read-out: IC50 LNCaP.
Where [13] appears, read: MCF7, Table 8, breast cancer cell line.
Setting [14] is: DU-145, Example 11 table, 96 h, read-out: IC50 DU145.
Setting [15] is: LNCaP, Example 11 table, 96 h, read-out: IC50 LNCaP.
The mark [16] stands for this setting: TSU-Pr1, Example 11 table, 96 h.
The mark [17] stands for this setting: Example 14, 10 μM, 1 h, (−) control 1.00.

In the case of `CCCCCCCCCCCCCCCCCCNC[C@H](CO)NC.Cl` [drawing 55], the IC50 in assay [1] (setting [9]) stood at 3.3 µM. Further, the “Time to almost complete inhibition of AKT phosphorylation” value in assay [2] (Example 13, 10 μM) is at most 6 h. For the same compound, the “Relative abundance (Pi-AKT/AKT)” value in assay [2] (Example 13, 10 μM, 6 h, (−) control 1.00) amounted to 0.07; in assay [2] (Example 13, 10 μM, 12 h), 0.31; in assay [2] (Example 13, 10 μM, 24 h), 1.02; in assay [2] (Example 13, 10 μM, 36 h) it was 0.63; in assay [2] (Example 13, 10 μM, 48 h), 0.94.

With `CCCCCCCCCCCCCCCCCCNC(=O)[C@@H]1CSC(c2ccc(-c3ccccc3)cc2)N1` (mixture of isomers) [Compound 27-HCI, (2RS, 4R)-2-Biphenyl-4-yl-thiazolidine-4-carboxylic acid octadecylamide Hydrochloride], the IC50 in assay [3] (setting [10]) is above 20 µM; in assay [4] (setting [11]), above 20 µM; in assay [5] (Table 4) it was above 20 µM; in assay [1] (setting [12]), above 20 µM; in assay [6] (PPC-1, Table 4, 96 h), above 20 µM; in assay [7] (TSU-Pr1, Table 4, 96 h), above 20 µM. Besides, the IC50 in assay [8] (setting [13]) was above 20 µM.

With `CCCCCCCCCCCCCCCCCCNC(=O)[C@H](CO)NC(=O)OC(C)(C)C`, the IC50 in assay [1] (setting [9]) was 10.3 µM. For the same compound, the “Relative abundance (Pi-AKT/β-Actin)” value in assay [2] (30 μM, 1 h, (−) control 1.00) is listed as 1.29; in assay [2] (30 μM, 2 h), 1.01; in assay [2] (30 μM, 6 h), 0.71; in assay [2] (30 μM, 12 h), 0.50; in assay [2] (30 μM, 24 h), 0.32; in assay [2] (30 μM, 48 h), below 0.10. The “Relative abundance (Pi-AKT/β-Actin)” value in assay [2] (30 μM, 72 h) was below 0.10. Moreover, the “AKT phosphorylation inhibited to” value in assay [2] (30 μM, by 12 hours of treatment) came out at 50%.

In the case of `O=C(O)[C@@H]1CSC(c2ccc(-c3ccccc3)cc2)N1` (stereo partly drawn), the IC50 is above 100 µM in assay [3] (RH7777, Example 11 table, 96 h); above 100 µM in assay [4] (setting [14]); above 100 µM in assay [5] (Example 11 table); 71 µM in assay [1] (setting [15]); above 100 µM in assay [6] (PPC-1, Example 11 table, 96 h); around 100 µM in assay [7] (setting [16]). Further, the IC50 in assay [8] (MCF7, Example 11 table, 96 h) was above 100 µM.

Consider `O=C(O)[C@@H]1CSC(c2ccc(F)cc2)N1` (stereo partly drawn), for which the IC50 was above 100 µM in assay [3] (RH7777, Example 11 table, 96 h); above 100 µM in assay [4] (setting [14]); above 100 µM in assay [5] (Example 11 table); above 100 µM in assay [1] (setting [15]); above 100 µM in assay [6] (PPC-1, Example 11 table, 96 h); above 100 µM in assay [7] (setting [16]). For the same compound, in assay [8] (MCF7, Example 11 table, 96 h), the IC50 was above 100 µM.

As to `CCCCCCCCCCCCCCCCCCNC(=O)[C@@H]1CSC(c2c(Cl)cccc2Cl)N1` (mixture of isomers) [Compound 24, (2RS, 4R)-2-(2,6-Dichloro-phenyl)-thiazolidine-4-carboxylic acid octadecylamide], the IC50 in assay [3] (setting [10]) was above 20 µM; in assay [4] (setting [11]), above 20 µM; in assay [5] (Table 4), above 20 µM; in assay [1] (setting [12]), 13.1 µM; in assay [6] (PPC-1, Table 4, 96 h) it was 17.1 µM; in assay [7] (TSU-Pr1, Table 4, 96 h), around 20 µM. Besides, the IC50 in assay [8] (setting [13]) was determined as 17.7 µM.

With `CCCCCCCCCCCCCCCCCCCCNC[C@@H](N)CO` [S4], the IC50 in assay [3] (RH7777, Example 10 table, 0 to 100 μM for 96 h) came to 2.9 µM; in assay [4] (DU-145, read-out: IC50 DU-145, Example 10 table, 96 h), 4.1 µM; in assay [5] (Example 10 table), 2.6 µM; in assay [1] (LNCaP, Example 10 table, 96 h, read-out: IC50 LNCaP) it was 5.1 µM; in assay [6] (PPC-1, Example 10 table, 96 h), 1.9 µM; in assay [7] (TSU-Pr1, Example 10 table, 96 h), 2.2 µM. The IC50 in assay [8] (MCF7, Example 10 table, 96 h) amounted to 4.6 µM.

Consider `O=C(O)[C@@H]1CSC(c2cc(F)cc(F)c2)N1` (stereo partly drawn), for which the IC50 is above 100 µM in assay [3] (RH7777, Example 11 table, 96 h); above 100 µM in assay [4] (setting [14]); above 100 µM in assay [5] (Example 11 table); above 100 µM in assay [1] (setting [15]); above 100 µM in assay [6] (PPC-1, Example 11 table, 96 h); above 100 µM in assay [7] (setting [16]). Moreover, in assay [8] (MCF7, Example 11 table, 96 h), the IC50 is above 100 µM.

As to `O=C(O)[C@@H]1CSC(c2c(Cl)cccc2Cl)N1` (stereo partly drawn), the IC50 in assay [3] (RH7777, Example 11 table, 96 h) is above 100 µM; in assay [4] (setting [14]), above 100 µM; in assay [5] (Example 11 table) it was above 100 µM; in assay [1] (setting [15]) it was above 100 µM; in assay [6] (PPC-1, Example 11 table, 96 h), above 100 µM; in assay [7] (setting [16]) it was above 100 µM. Besides, in assay [8] (MCF7, Example 11 table, 96 h), the IC50 is above 100 µM.

Turning to `CCCCCCCCCCCCCCCCCCNC[C@H](CO)NC.Cl`, in assay [2] (Example 14, 10 μM), the “Time to almost complete inhibition of AKT phosphorylation” value is at most 1 h. In addition, the “Relative abundance (Pi-AKT/AKT)” value in assay [2] (setting [17]) is on record as 0.07; in assay [2] (Example 14, 10 μM, 2 h) it was 0.06; in assay [2] (Example 14, 10 μM, 3 h), 0.04; in assay [2] (Example 14, 10 μM, 4 h), 0.12; in assay [2] (Example 14, 10 μM, 6 h) it was 0.12; in assay [2] (Example 14, 10 μM, 8 h) it was 0.14. Moreover, the “Relative abundance (Pi-AKT/AKT)” value in assay [2] (Example 14, 10 μM, 10 h) amounted to 0.14. In addition, the “Relative abundance (Pi-AKT/β-Actin)” value in assay [2] (setting [17]) amounted to 0.08; in assay [2] (Example 14, 10 μM, 2 h), 0.06; in assay [2] (Example 14, 10 μM, 3 h) it was 0.04; in assay [2] (Example 14, 10 μM, 4 h), 0.11; in assay [2] (Example 14, 10 μM, 6 h) it was 0.10; in assay [2] (Example 14, 10 μM, 8 h), 0.11. In assay [2] (Example 14, 10 μM, 10 h), the “Relative abundance (Pi-AKT/β-Actin)” value is on record as 0.43.

In the case of `COc1ccc(C2N[C@H](C(=O)O)CS2)cc1` (stereo partly drawn), the IC50 in assay [3] (RH7777, 96 h) is above 100 µM; in assay [4] (DU-145, 96 h, read-out: IC50 DU145) it was around 100 µM; in assay [5], above 100 µM; in assay [1] (LNCaP, 96 h, read-out: IC50 LNCaP) it was around 50 µM; in assay [6] (PPC-1, 96 h), above 100 µM; in assay [7] (TSU-Pr1, 96 h), above 100 µM. The IC50 in assay [8] (MCF7, 96 h) is around 100 µM.
